Experimental data published in PubChem BioAssay (NCI).
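Cultured in 96-well plates, cells were exposed to test compound for 48 hours across five concentrations. TGI denotes the concentration required for complete inhibition of growth.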

Key:
Experiment in all cases: NCI anticancer screen, dose series, 48 h
[1] = test system: A549 NSCLC
[2] = test system: ACHN renal
[3] = test system: BT-549 breast
[4] = test system: CAKI-1 renal
[5] = test system: CCRF-CEM leukemia
[6] = test system: COLO 205 colon
[7] = test system: DU-145 prostate
[8] = test system: EKVX NSCLC
[9] = test system: HCT-116 colon
[10] = test system: HCT-15 colon
[11] = test system: HL-60(TB) leukemia
[12] = test system: HOP-62 NSCLC
[13] = test system: HOP-92 NSCLC
[14] = test system: HS 578T breast
[15] = test system: HT29 colon
[16] = test system: IGROV1 ovarian
[17] = test system: K-562 leukemia
[18] = test system: KM12 colon
[19] = test system: LOX IMVI melanoma
[20] = test system: MCF7 breast
[21] = test system: MDA-MB-231 breast
[22] = test system: MDA-MB-435
[23] = test system: MDA-N
[24] = test system: MOLT-4 leukemia
[25] = test system: NCI-H226 lung
[26] = test system: NCI-H23 lung
[27] = test system: NCI-H460 lung
[28] = test system: NCI-H522 lung
[29] = test system: NCI/ADR-RES ovarian
[30] = test system: OVCAR-3 ovarian
[31] = test system: OVCAR-4 ovarian
[32] = test system: OVCAR-5 ovarian
[33] = test system: OVCAR-8 ovarian
[34] = test system: PC-3 prostate
[35] = test system: RPMI-8226 leukemia
[36] = test system: RXF 393 renal
[37] = test system: SF-268 CNS
[38] = test system: SF-295 CNS
[39] = test system: SF-539 CNS
[40] = test system: SK-MEL-2 melanoma
[41] = test system: SK-MEL-28 melanoma
[42] = test system: SK-MEL-5 melanoma
[43] = test system: SK-OV-3 ovarian
[44] = test system: SN12C renal
[45] = test system: SNB-19 CNS
[46] = test system: SNB-75 CNS
[47] = test system: SW-620 colon
[48] = test system: T-47D breast
[49] = test system: TK-10 renal
[50] = test system: U251 CNS
[51] = test system: UACC-257 melanoma
[52] = test system: UACC-62 melanoma
[53] = test system: UO-31 renal
[54] = test system: 786-0 renal
[55] = test system: HCC-2998 colon
[56] = test system: M14 melanoma
[57] = test system: MALME-3M melanoma
[58] = test system: SR leukemia
[59] = test system: A498 renal

COc1nc(Cl)nc(N[C@H](C)c2c3ccccc3cc3ccccc23)n1
TGI [1]: 96.2 µM | TGI [2]: 31.7 µM | TGI [3]: 32.5 µM | TGI [4]: 25.9 µM | TGI [5]: 29.6 µM | TGI [6]: 28.1 µM | TGI [7]: 25 µM | TGI [8]: 29.6 µM | TGI [9]: 24.8 µM | TGI [10]: 27 µM | TGI [11]: 58.8 µM | TGI [12]: 31.5 µM | TGI [13]: 46.4 µM | TGI [14]: 21.9 µM | TGI [15]: 31.3 µM | TGI [16]: 20.5 µM | TGI [17]: 97.8 µM | TGI [18]: 26.9 µM | TGI [19]: 33.2 µM | TGI [20]: 29.2 µM | TGI [21]: 34.4 µM | TGI [22]: 15.1 µM | TGI [23]: 8.99 µM | TGI [24]: 40.1 µM | TGI [25]: 31.6 µM | TGI [26]: 31.8 µM | TGI [27]: 33.9 µM | TGI [28]: 21.3 µM | TGI [29]: 31.3 µM | TGI [30]: 23.5 µM | TGI [31]: 13.7 µM | TGI [32]: 31.1 µM | TGI [33]: 28.4 µM | TGI [34]: 31.5 µM | TGI [35]: 21.1 µM | TGI [36]: 25.9 µM | TGI [37]: 39.7 µM | TGI [38]: 31 µM | TGI [39]: 33.8 µM | TGI [40]: 31.6 µM | TGI [41]: 10.2 µM | TGI [42]: 19.5 µM | TGI [43]: 29.3 µM | TGI [44]: 17.8 µM | TGI [45]: 31.1 µM | TGI [46]: 76.4 µM | TGI [47]: 28.8 µM | TGI [48]: 9.08 µM | TGI [49]: 14.8 µM | TGI [50]: 31.9 µM | TGI [51]: 30.2 µM | TGI [52]: 13.8 µM | TGI [53]: 31.8 µM

CN(CCCCCl)P(=O)(OCc1ccc([N+](=O)[O-])o1)OCC1OC(n2ccc(N)nc2=O)C(O)C1O (stereo unspecified)
TGI [54]: > 100 µM | TGI [1]: 2.61 µM | TGI [2]: > 100 µM | TGI [4]: > 100 µM | TGI [6]: 2.69 µM | TGI [7]: 44.6 µM | TGI [55]: 12.6 µM | TGI [9]: 25.9 µM | TGI [10]: > 100 µM | TGI [11]: 31.8 µM | TGI [12]: 66.8 µM | TGI [14]: 6.46 µM | TGI [15]: 41.4 µM | TGI [16]: 16.3 µM | TGI [17]: > 100 µM | TGI [18]: 34.6 µM | TGI [19]: 20.5 µM | TGI [56]: > 100 µM | TGI [57]: 8.36 µM | TGI [20]: 17 µM | TGI [21]: 67.3 µM | TGI [22]: 8.21 µM | TGI [23]: 40.3 µM | TGI [24]: 11 µM | TGI [25]: > 100 µM | TGI [26]: 33.1 µM | TGI [27]: 68.3 µM | TGI [28]: 24.3 µM | TGI [29]: > 100 µM | TGI [30]: 17.2 µM | TGI [31]: 29.1 µM | TGI [32]: > 100 µM | TGI [33]: > 100 µM | TGI [34]: 43 µM | TGI [35]: 6.07 µM | TGI [36]: 60.2 µM | TGI [37]: > 100 µM | TGI [38]: 57.7 µM | TGI [39]: 38.9 µM | TGI [40]: 53.1 µM | TGI [41]: > 100 µM | TGI [42]: 1.15 µM | TGI [43]: 38.3 µM | TGI [44]: 33.7 µM | TGI [45]: 43.7 µM | TGI [46]: 5.59 µM | TGI [58]: 43.9 µM | TGI [47]: 69.6 µM | TGI [48]: 7.71 µM | TGI [49]: > 100 µM | TGI [50]: 11.1 µM | TGI [51]: 30.2 µM | TGI [52]: 40.6 µM | TGI [53]: > 100 µM

COC(=O)c1c2c(cc3c1CC1(Cc4cc5c(c(C=O)c4C1)CCC5)C3)CCC2 (stereo unspecified)
TGI [54]: > 100 µM | TGI [59]: > 100 µM | TGI [1]: > 100 µM | TGI [2]: > 100 µM | TGI [4]: > 100 µM | TGI [5]: 56.7 µM | TGI [7]: > 100 µM | TGI [8]: > 100 µM | TGI [55]: 95.2 µM | TGI [9]: 60 µM | TGI [10]: > 100 µM | TGI [11]: 51.5 µM | TGI [12]: > 100 µM | TGI [13]: 60.7 µM | TGI [14]: > 100 µM | TGI [15]: 79.2 µM | TGI [16]: > 100 µM | TGI [17]: > 100 µM | TGI [19]: 56.5 µM | TGI [56]: 75.6 µM | TGI [57]: 61.7 µM | TGI [20]: > 100 µM | TGI [21]: 91.7 µM | TGI [22]: 50.5 µM | TGI [23]: > 100 µM | TGI [24]: 59.1 µM | TGI [26]: > 100 µM | TGI [27]: > 100 µM | TGI [28]: 56.6 µM | TGI [29]: > 100 µM | TGI [30]: 99.2 µM | TGI [31]: > 100 µM | TGI [32]: > 100 µM | TGI [33]: > 100 µM | TGI [34]: > 100 µM | TGI [35]: > 100 µM | TGI [36]: > 100 µM | TGI [37]: > 100 µM | TGI [38]: > 100 µM | TGI [39]: > 100 µM | TGI [40]: 72 µM | TGI [41]: > 100 µM | TGI [42]: 37.2 µM | TGI [43]: > 100 µM | TGI [45]: > 100 µM | TGI [46]: > 100 µM | TGI [58]: 53.7 µM | TGI [47]: > 100 µM | TGI [48]: > 100 µM | TGI [49]: > 100 µM | TGI [50]: 57.3 µM | TGI [51]: 71.3 µM | TGI [53]: 71.8 µM

CC1CCC2C(C)C(=O)OC2C2(C)C(=O)C=CC12 (stereo unspecified)
TGI [54]: > 10 µM | TGI [1]: > 10 µM | TGI [2]: > 10 µM | TGI [4]: > 10 µM | TGI [5]: > 10 µM | TGI [6]: > 10 µM | TGI [7]: > 10 µM | TGI [8]: > 10 µM | TGI [55]: > 10 µM | TGI [9]: > 10 µM | TGI [10]: > 10 µM | TGI [11]: > 10 µM | TGI [12]: > 10 µM | TGI [13]: > 10 µM | TGI [14]: > 10 µM | TGI [15]: > 10 µM | TGI [16]: > 10 µM | TGI [17]: > 10 µM | TGI [18]: > 10 µM | TGI [19]: > 10 µM | TGI [56]: > 10 µM | TGI [20]: > 10 µM | TGI [21]: > 10 µM | TGI [22]: > 10 µM | TGI [23]: > 10 µM | TGI [24]: > 10 µM | TGI [25]: > 10 µM | TGI [26]: > 10 µM | TGI [27]: > 10 µM | TGI [28]: > 10 µM | TGI [29]: > 10 µM | TGI [30]: > 10 µM | TGI [31]: > 10 µM | TGI [32]: > 10 µM | TGI [33]: > 10 µM | TGI [34]: > 10 µM | TGI [35]: > 10 µM | TGI [36]: > 10 µM | TGI [37]: > 10 µM | TGI [38]: > 10 µM | TGI [39]: > 10 µM | TGI [40]: > 10 µM | TGI [41]: > 10 µM | TGI [42]: > 10 µM | TGI [43]: > 10 µM | TGI [44]: > 10 µM | TGI [45]: > 10 µM | TGI [46]: > 10 µM | TGI [58]: > 10 µM | TGI [47]: > 10 µM | TGI [48]: > 10 µM | TGI [49]: > 10 µM | TGI [50]: > 10 µM | TGI [51]: > 10 µM | TGI [52]: > 10 µM | TGI [53]: > 10 µM
